The text below walks through data of ChEMBL document CHEMBL3880403, “Diaryl ethers as opioid receptor antagonist” (2006).

For orientation: inhibition in vivo means the share of the control response that was lost under treatment. One may read the Kb as the equilibrium dissociation constant of an antagonist, usually derived from a functional assay.

The test system of assay [1] is Rattus norvegicus. The assay is described as follows: Ex vivo inhibition of [3H]-Diprenophine binding to mu opioid receptor in striatum/nucleus accumbens isolated from rat treated with compound at 7 mg/kg, po for 6 hrs measured after 30 mins post [3H]-Diprenophine addition to tissue relative to control. In kind it is functional.
The target of assay [2] is Mu-type opioid receptor (Homo sapiens) (UniProt P35372). The assay is described as follows: Antagonist activity at mu opioid receptor (unknown origin) expressed in membranes assessed as inhibition of DAMGO1-induced GTP-gamma-[35S] binding after 4 hrs by micro beta scintillation counting analysis. For orientation: Binding of GTPγS marks nucleotide exchange on a G protein.

The target of assay [3] is Kappa-type opioid receptor (Homo sapiens) (UniProt P41145). The assay is described as follows: Antagonist activity at kappa opioid receptor (unknown origin) expressed in membranes assessed as inhibition of U69593-induced GTP-gamma-[35S] binding after 4 hrs by micro beta scintillation counting analysis.
Assay [4] deals with Delta-type opioid receptor (Homo sapiens) (UniProt P41143). The assay is described as follows: Antagonist activity at delta opioid receptor (unknown origin) expressed in membranes assessed as inhibition of DPDPE-induced GTP-gamma-[35S] binding after 4 hrs by micro beta scintillation counting analysis.
Assay [5] concerns Rattus norvegicus. The assay is described as follows: Ex vivo inhibition of [3H]-Diprenophine binding to delta opioid receptor in striatum/nucleus accumbens isolated from rat treated with compound at 7 mg/kg, po for 6 hrs measured after 30 mins post [3H]-Diprenophine addition to tissue relative to control. It counts as functional.
Assay [6] concerns Rattus norvegicus. Briefly: Ex vivo inhibition of [3H]-Diprenophine binding to kappa opioid receptor in striatum/nucleus accumbens isolated from rat treated with compound at 7 mg/kg, po for 6 hrs measured after 30 mins post [3H]-Diprenophine addition to tissue relative to control. In kind it is functional.
Assay [7] concerns Rattus norvegicus. The assay is described as follows: In vivo inhibition of opioid receptor in obese rat assessed as compound dose causing effective decrease in feeding behavior. It counts as functional.
Assay [8] deals with Rattus norvegicus. The assay is described as follows: Antiobesity activity in po dosed diet-induced obese rat assessed as inhibition of food consumption measured up to 24 hrs by indirect calorimetry assay. As to conditions: read-out: MED. It counts as functional.
In assay [9] the test system is Rattus norvegicus. Briefly: Antiobesity activity in diet-induced obese rat assessed as energy balance at 3 mg/kg, po measured up to 24 hrs by indirect calorimetry assay. It counts as functional.

Sequence of Mu-type opioid receptor (Homo sapiens) (P35372 whole entry): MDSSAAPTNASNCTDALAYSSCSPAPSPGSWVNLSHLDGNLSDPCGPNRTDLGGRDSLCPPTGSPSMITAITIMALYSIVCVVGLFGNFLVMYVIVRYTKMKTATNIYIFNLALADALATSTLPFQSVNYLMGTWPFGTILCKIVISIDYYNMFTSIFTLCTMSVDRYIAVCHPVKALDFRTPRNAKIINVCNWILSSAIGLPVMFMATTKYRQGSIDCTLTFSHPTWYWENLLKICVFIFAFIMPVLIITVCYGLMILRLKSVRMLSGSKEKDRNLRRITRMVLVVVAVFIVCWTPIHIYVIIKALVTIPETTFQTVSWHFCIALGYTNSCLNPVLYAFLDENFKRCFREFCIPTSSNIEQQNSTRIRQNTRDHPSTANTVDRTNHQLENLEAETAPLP
Sequence of Kappa-type opioid receptor (Homo sapiens) (P41145 whole entry): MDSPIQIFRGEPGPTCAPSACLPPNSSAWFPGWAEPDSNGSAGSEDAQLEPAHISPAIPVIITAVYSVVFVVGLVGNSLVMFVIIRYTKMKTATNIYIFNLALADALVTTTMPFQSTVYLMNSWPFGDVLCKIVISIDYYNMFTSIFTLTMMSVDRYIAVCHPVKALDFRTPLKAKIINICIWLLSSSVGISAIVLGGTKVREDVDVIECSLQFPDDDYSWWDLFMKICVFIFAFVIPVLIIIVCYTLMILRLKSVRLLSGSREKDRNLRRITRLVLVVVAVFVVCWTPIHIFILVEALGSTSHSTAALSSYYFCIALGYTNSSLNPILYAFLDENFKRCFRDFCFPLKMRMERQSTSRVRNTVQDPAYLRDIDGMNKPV
Sequence of Delta-type opioid receptor (Homo sapiens) (P41143 whole entry): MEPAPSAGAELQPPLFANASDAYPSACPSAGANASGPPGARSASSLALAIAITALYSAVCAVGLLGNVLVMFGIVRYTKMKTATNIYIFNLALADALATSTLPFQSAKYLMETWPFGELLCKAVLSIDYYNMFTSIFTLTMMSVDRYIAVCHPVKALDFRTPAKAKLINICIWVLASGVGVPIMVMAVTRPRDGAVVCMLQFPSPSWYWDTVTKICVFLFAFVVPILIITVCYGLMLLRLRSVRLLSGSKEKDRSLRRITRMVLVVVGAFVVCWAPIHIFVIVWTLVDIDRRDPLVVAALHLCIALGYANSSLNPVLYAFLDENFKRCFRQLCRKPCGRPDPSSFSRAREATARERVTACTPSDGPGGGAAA

Consider `NC(=O)c1ccc(Oc2ccc(CNCCc3cccs3)cc2)nc1`, for which the inhibition in vivo at 7 mg/kg in assay [1], in assay [5] and in assay [6] was over 40% throughout. Also, the Kb came out at 0.068 nM in assay [2], 0.355 nM in assay [3] and 0.708 nM in assay [4]. In assay [7], the ED entry is listed as “<=3 ug/kg”. Further, the minimal effective dose in assay [8] was at most 3 mg/kg. Moreover, the Activity in assay [9] is -19 kcal/kg/day.
`NC(=O)c1ccc(Oc2ccc(CCNCc3cccc(Cl)c3)cc2Cl)nc1`: the Kb in [2] was 0.503 nM; in assay [3] it was 6.86 nM; in assay [4] it was 30.1 nM.
With `Cc1cc(CNCCC(C)(C)C)ccc1Oc1ccc(C(N)=O)cn1`, the inhibition in vivo at 7 mg/kg in [1], in [5] and in assay [6] was 59% each time.
For the molecule `COc1cc(CNCCc2ccccc2F)ccc1Oc1ccc(C(N)=O)cn1`, the inhibition in vivo at 7 mg/kg in assay [1], in assay [5] and in assay [6] was 54% each time.
In the case of `CC(C)CCNCc1ccc(Oc2ccc(C(N)=O)cn2)cc1`, the inhibition in vivo at 7 mg/kg in assay [1], in [5] and in [6] was over 40% each time. The Kb came out at 0.2 nM in assay [2], 0.4 nM in assay [3] and 4.4 nM in assay [4]. The ED in [7] is reported as 0.3 mg/kg. Further, the minimal effective dose in [8] was 0.3 mg/kg. The Activity in assay [9] was -35 kcal/kg/day.
Regarding `O=C1CC[C@@]2(O)[C@H]3Cc4ccc(O)c5c4[C@@]2(CCN3CC2CC2)[C@H]1O5` [NALTREXONE], the inhibition in vivo at 7 mg/kg in assay [1], in assay [5] and in assay [6] was under 40% throughout. In [8], the minimal effective dose was over 10 mg/kg.
`CCCCCNCc1ccc(Oc2ccc(C(N)=O)cc2)cc1`: in [7], the ED is given as 3 mg/kg. Besides, the minimal effective dose in [8] stood at 3 mg/kg. The Activity in assay [9] is -65 kcal/kg/day.
Regarding `NC(=O)c1ccc(Oc2ccc(CNCCC3CCCC3)cc2)nc1`, the inhibition in vivo at 7 mg/kg in assay [1], in assay [5] and in assay [6] was over 60% throughout. For the same molecule, the ED entry in assay [7] was “<=3 ug/kg”. Moreover, in [8], the minimal effective dose was at most 3 mg/kg. Further, the Activity in assay [9] is -39 kcal/kg/day.
Turning to `NC(=O)c1ccc(Oc2ccc(CNCCc3cccc(F)c3)cc2)nc1`, the inhibition in vivo at 7 mg/kg in assay [1], in assay [5] and in [6] was 40% each time. Also, the Kb was 0.072 nM in [2], 0.894 nM in [3] and 0.677 nM in assay [4].
On to `NC(=O)c1ccc(Oc2ccc(CCNCc3ccccc3)cc2Cl)nc1`, for which the antagonist dissociation constant (Kb) in assay [2] came out at 0.843 nM; in assay [3], 7.86 nM; in assay [4] it was 17.5 nM.
On to `NC(=O)c1ccc(Oc2ccc3c(c2)CCCN(CCc2ccccc2)C3)nc1`, for which the inhibition in vivo at 7 mg/kg in assay [1], in assay [5] and in assay [6] was 62% throughout.
`NC(=O)c1ccc(Oc2ccc(CNCCc3ccc(F)cc3)cc2)cc1`: the inhibition in vivo at 7 mg/kg in [1], in assay [5] and in assay [6] was 50% throughout.
Regarding `CC(C)CCNCc1ccc(Oc2ccc(C(N)=O)cn2)c(Cl)c1`, the inhibition in vivo at 7 mg/kg in assay [1], in assay [5] and in assay [6] was 77% each time.
`COc1cc(CNCCC(C)(C)C)ccc1Oc1ccc(C(N)=O)cn1`: the inhibition in vivo at 7 mg/kg in assay [1], in assay [5] and in assay [6] was 55% throughout.
On to `Cc1cc(CNCCC(C)C)ccc1Oc1ccc(C(N)=O)cc1F`, for which the inhibition in vivo at 7 mg/kg in assay [1], in [5] and in assay [6] was 58% in each case.
Turning to `NC(=O)c1ccc(Oc2ccc(CNCCC3CCCCC3)cc2)nc1`, the inhibition in vivo at 7 mg/kg in assay [1], in [5] and in [6] was 79% in each case.
For the molecule `NC(=O)c1ccc(Oc2ccc(CCNCc3cccc(F)c3)cc2Cl)nc1`, the Kb in assay [2] turned out to be 0.41 nM; in assay [3] it was 4.5 nM; in assay [4], 5.78 nM.
For the molecule `CCCCNCc1ccc(Oc2ccc(C(N)=O)cn2)c(C)c1`, the inhibition in vivo at 7 mg/kg in [1], in assay [5] and in [6] was 38% each time.
With `CC(C)CCNCc1ccc(Oc2ccc(C(N)=O)cn2)c(F)c1`, the inhibition in vivo at 7 mg/kg in assay [1], in assay [5] and in [6] was over 65% each time. The ED in assay [7] amounted to 0.3 mg/kg. Moreover, the minimal effective dose in assay [8] stood at 0.3 mg/kg. Moreover, in assay [9], the Activity was -81 kcal/kg/day.
With `CCCCCNCc1ccc(Oc2ccc(C(N)=O)cn2)c(OC)c1`, the inhibition in vivo at 7 mg/kg in assay [1], in [5] and in assay [6] was 75% each time.
As for `CCCCCNCc1ccc(Oc2ccc(C(N)=O)nc2)c(F)c1`, the inhibition in vivo at 7 mg/kg in [1], in [5] and in assay [6] was 55% throughout.
Take `Cc1cc(CNCCC(C)C)ccc1Oc1ccc(C(N)=O)cn1`: the inhibition in vivo at 7 mg/kg in assay [1], in assay [5] and in assay [6] was 55% each time. Moreover, in assay [7], the ED stood at 0.3 mg/kg. In [8], the minimal effective dose is 0.3 mg/kg. The Activity in assay [9] is -68 kcal/kg/day.
Turning to `CC(C)(C)CCNCc1ccc(Oc2ccc(C(N)=O)cn2)cc1`, the inhibition in vivo at 7 mg/kg in assay [1], in assay [5] and in [6] was 62% in each case. Further, in assay [7], the ED result is reported as “<=3 ug/kg”. The minimal effective dose in assay [8] was at most 3 mg/kg. The Activity in [9] was -56 kcal/kg/day.
`CC(C)(C)CCNCc1ccc(Oc2ccc(C(N)=O)cn2)c(Cl)c1`: the inhibition in vivo at 7 mg/kg in assay [1], in [5] and in [6] was 83% each time.
`Cc1ccccc1CNCCc1ccc(Oc2ccc(C(N)=O)cn2)c(Cl)c1`: the antagonist dissociation constant (Kb) in [2] was found to be 0.281 nM; in assay [3], 3.38 nM; in [4], 8.9 nM.
Turning to `C[C@H]1CN(CC[C@H](O)C2CCCCC2)CC[C@@]1(C)c1cccc(O)c1`, the inhibition in vivo at 7 mg/kg in [1], in assay [5] and in [6] was over 40% in each case. Besides, the minimal effective dose in [8] is 1 mg/kg. Moreover, the Activity in [9] was -36 kcal/kg/day.
